{"source": "paper PMC5995184", "about": "“Potent anti-leukemic activity of a specific cyclin-dependent kinase 9 inhibitor in mouse models of chronic lymphocytic leukemia” (Oncotarget, 2018)", "key": {"[1]": {"system": "non-malignant normal donor B cells", "experiment": "Normal donor B cell viability (Annexin V/DAPI, absolute counts)", "type": "cell-based", "details": "Homo sapiens, read-out: IC50, viable non-malignant B cells", "description": "The MEC-1 cell line was obtained from the DSMZ (Braunschweig, Germany) and was cultured in RPMI (10% fetal bovine serum). A LDC526 stock solution was prepared with DMSO, diluted and added to the cultures to reach the specified concentrations. Samples (percentage of CD19+CD5+ CLL cells >90%) of n=37 CLL patients (Table 1) and n=6 healthy normal donor controls were used for experiments after obtaining informed consent according to institutional guidelines, approved by the Ethics Commission of the University of Essen-Duisburg. Peripheral blood mononuclear cells (PBMC) were isolated using Lymphoprep ([…] Technologies, Cologne, Germany) density gradient centrifugation and were used directly for NSG transplantation or in vitro experiments. Untouched normal donor B cells were isolated with a B cell isolation kit (Miltenyi, Bergisch Gladbach, Germany) according to the manufacturer’s instructions. […]\nApoptosis and cell death were determined by using Annexin V (BD Biosciences, Heidelberg, Germany) and 4′,6-Diamidin-2-phenylindol (DAPI, Sigma-Aldrich) staining. […] Flow cytometric data were analyzed with BD FACSDiva or FlowJo software (FLOWJO, LLC, Ashland, OR, USA). […]\nData were analyzed with GraphPad Prism 7 software. Differences were assessed by unpaired or paired Student t tests if not indicated otherwise. […]"}, "CDK2-Cyclin A": {"biological_target": "T1, CDK2-Cyclin A (Homo sapiens, UniProt P24941)", "T1 construct": "purchased ProQinase", "experiment": "FRET-based LANCE Ultra in vitro enzymatic kinase assay, CDK2", "type": "biochemical", "description": "(§1) IC50 values for CDK inhibitors were determined using the fluorescence resonance energy transfer (FRET)-based LANCE Ultra KinaSelect Ser/Thr kit (Perkin Elmer). Kinase activity and inhibition were measured according to the manufacturer’s instructions and as previously described. […] FRET signals were recorded in a time-resolved manner in a Perkin Elmer EnVision reader. Purified cyclin-kinase pairs were obtained from the following suppliers: Carna Biosciences (CDK1-Cyclin B1, CDK6-Cyclin D3, CDK7-Cyclin H-MAT1), ProQinase (CDK2-Cyclin A) and Invitrogen (CDK9-Cyclin T1).\n(§2) Data were analyzed with GraphPad Prism 7 software. Differences were assessed by unpaired or paired Student t tests if not indicated otherwise. Two-sided probabilities of less than 0.05 were considered significant. Nonlinear regression sigmoidal dose-response curve fit was used to determine the IC50 values and to generate graphs."}, "CDK6-Cyclin D3 [2]": {"system": "CDK6-Cyclin D3", "experiment": "FRET-based LANCE Ultra in vitro enzymatic kinase assay, CDK6", "type": "biochemical", "description": "as §1, §2"}, "CDK6-Cyclin D3 [3]": {"biological_target": "T2, CDK6-Cyclin D3 (Homo sapiens, UniProt Q00534)", "T2 construct": "purchased Carna Biosciences", "T2 sequence (Q00534 whole entry)": "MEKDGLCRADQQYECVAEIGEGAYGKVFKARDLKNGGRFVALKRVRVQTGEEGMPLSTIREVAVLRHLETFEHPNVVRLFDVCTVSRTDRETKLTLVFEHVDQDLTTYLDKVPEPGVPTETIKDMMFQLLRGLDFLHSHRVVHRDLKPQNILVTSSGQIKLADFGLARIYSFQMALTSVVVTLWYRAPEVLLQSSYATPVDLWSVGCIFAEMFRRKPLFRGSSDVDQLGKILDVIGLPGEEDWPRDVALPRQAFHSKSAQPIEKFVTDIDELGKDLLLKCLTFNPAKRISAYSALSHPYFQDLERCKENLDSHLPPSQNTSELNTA", "T2 sequence (P30281 whole entry partner)": "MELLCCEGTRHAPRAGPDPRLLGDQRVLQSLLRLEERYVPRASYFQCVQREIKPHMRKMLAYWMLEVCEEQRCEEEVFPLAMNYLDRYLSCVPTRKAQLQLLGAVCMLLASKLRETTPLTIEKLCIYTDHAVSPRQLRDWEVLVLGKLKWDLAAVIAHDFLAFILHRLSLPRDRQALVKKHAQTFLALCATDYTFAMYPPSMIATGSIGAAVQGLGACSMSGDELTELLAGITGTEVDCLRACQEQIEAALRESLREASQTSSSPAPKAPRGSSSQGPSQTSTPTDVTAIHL", "experiment": "FRET-based LANCE Ultra in vitro enzymatic kinase assay, CDK6", "type": "biochemical", "description": "as §1, §2"}}, "note": "Read-outs that look alike come from different tables or passages of the source.", "data": [{"smiles": "COc1cc(F)ccc1-c1ncnc(Nc2cccc(CS(N)(=O)=O)c2)n1", "note": "[LDC526, (3-((4-(4-fluoro-2-methoxyphenyl)-1,3,5-triazin-2-yl)amino)phenyl)methane-sulfonamide]", "values": [{"measurement": "IC50", "setting": "[1]; 24 hours incubation", "value": 0.9, "unit": "µM"}, {"measurement": "IC50", "setting": "[1]; 48 hours incubation", "value": 1.48, "unit": "µM"}, {"measurement": "selectivity versus CDK9 compared to CDK2", "setting": "CDK2-Cyclin A", "value": 52, "unit": "fold"}, {"measurement": "selectivity versus CDK9 compared to CDK6", "setting": "CDK6-Cyclin D3 [2]", "value": "> 900", "unit": "fold"}, {"measurement": "IC50", "setting": "CDK6-Cyclin D3 [3]", "value": "> 10", "unit": "µM"}]}]}
